Data as given in patent publication US10336707B2, “Heterocyclic derivatives modulating activity of certain protein kinases” (EUDENDRON S.R.L., priority 2014, dated 2019).

What was measured:
[1] = target: T1, BaF3 cell line transfected with the oncogenic fusion protein NPM-ALK and expressing the mutation L1196M (Homo sapiens, UniProt Q9UM73, L1196M, cells depend on it); test: Tritiated thymidine uptake cell proliferation assay, BaF3 NPM-ALK L1196M; format: cell-based, murine; details: for GI50: averaged IC50 values of cell proliferation inhibition, class letters, read-out: IC50 BaF3 NPM-ALK L1196M cells; for % Inhibition BaF3 NPM-ALK L1196M cells: percentage of inhibition of cell proliferation at 200 nM
T1 construct: fused on or other part: P06748 (Nucleophosmin)
Procedure: (§1) Method: Tritiated Thymidine Uptake Cell Proliferation Assay
(§2) The following procedure was used with parent untransformed BaF3 cells, BaF3 cells transformed with the oncogenic fusion protein NPM/ALK, NPM/ALK positive SUDHL-1 cells, NPM/ALK positive SUPM2, ALK-negative HL60 cells, NPM/ALK positive KARPAS-299 cells. The parent untransformed BaF3 cells or Alk-negative HL60 cells are used as controls. Cells were seeded in U-bottomed 96-well plates at 10000 cells/well in a volume of 100 μl in supplemented medium. In the case of the parent untransformed BaF3 cells, the medium was supplemented with IL-3. Serial dilutions of inhibitors were added to the appropriate wells and volumes adjusted to 200 μl. Controls were treated with the equivalent volume of vehicle, DMSO, alone. Plates were incubated at 37° C. for 72 h. 3[H]-thymidine (1 μCi/well) was added for the last 16 h of incubation. Cells were harvested on to paper filters and 3[H]-thymidine incorporation was measured using a scintillation counter (1430 MicroBeta, Wallac, Turku, Finland). The 50% inhibitory concentration (IC50) was defined as the concentration of inhibitor, expressed in nanomolar units, that gave a 50% decrease in 3[H]-thymidine uptake compared with controls.
In Table 2 are listed results for selected examples of compounds of the invention, reported as percentage of inhibition of cell proliferation at 200 nM, obtained from cellular assays in BaF3 cell line transfected with the oncogenic fusion protein NPM-ALK and expressing the mutation L1196M.
In Table 3 are listed averaged IC50 values of cell proliferation inhibition for selected examples of compounds of the present invention, obtained from cellular assays in BaF3 cell line transfected with the oncogenic fusion protein NPM-ALK and expressing the mutation L1196M. The letter “A” designates an IC50 value between 1 nM and 50 nM, the letter “B” designates an IC50 value between 50 nM and 100 nM, the letter “C” designates an IC50 value between 100 and 500 nM.

[2] = tested on: Karpas 299 lymphoma cell line positive for the oncogenic fusion protein NPM-ALK; test: Tritiated thymidine uptake cell proliferation assay, Karpas 299; format: cell-based; details: Homo sapiens, KARPAS-299; percentage of inhibition of cell proliferation at 200 nM; read-out: % Inhibition Karpas 299 cells
Procedure: as §1, §2
In Table 1 are listed results for selected examples of compounds of the invention, reported as percentage of inhibition of cell proliferation at 200 nM, obtained from cellular assays in Karpas 299 lymphoma cell line positive for the oncogenic fusion protein NPM-ALK.

T1 sequence (Q9UM73 whole entry L1196M, the tested form may be a part): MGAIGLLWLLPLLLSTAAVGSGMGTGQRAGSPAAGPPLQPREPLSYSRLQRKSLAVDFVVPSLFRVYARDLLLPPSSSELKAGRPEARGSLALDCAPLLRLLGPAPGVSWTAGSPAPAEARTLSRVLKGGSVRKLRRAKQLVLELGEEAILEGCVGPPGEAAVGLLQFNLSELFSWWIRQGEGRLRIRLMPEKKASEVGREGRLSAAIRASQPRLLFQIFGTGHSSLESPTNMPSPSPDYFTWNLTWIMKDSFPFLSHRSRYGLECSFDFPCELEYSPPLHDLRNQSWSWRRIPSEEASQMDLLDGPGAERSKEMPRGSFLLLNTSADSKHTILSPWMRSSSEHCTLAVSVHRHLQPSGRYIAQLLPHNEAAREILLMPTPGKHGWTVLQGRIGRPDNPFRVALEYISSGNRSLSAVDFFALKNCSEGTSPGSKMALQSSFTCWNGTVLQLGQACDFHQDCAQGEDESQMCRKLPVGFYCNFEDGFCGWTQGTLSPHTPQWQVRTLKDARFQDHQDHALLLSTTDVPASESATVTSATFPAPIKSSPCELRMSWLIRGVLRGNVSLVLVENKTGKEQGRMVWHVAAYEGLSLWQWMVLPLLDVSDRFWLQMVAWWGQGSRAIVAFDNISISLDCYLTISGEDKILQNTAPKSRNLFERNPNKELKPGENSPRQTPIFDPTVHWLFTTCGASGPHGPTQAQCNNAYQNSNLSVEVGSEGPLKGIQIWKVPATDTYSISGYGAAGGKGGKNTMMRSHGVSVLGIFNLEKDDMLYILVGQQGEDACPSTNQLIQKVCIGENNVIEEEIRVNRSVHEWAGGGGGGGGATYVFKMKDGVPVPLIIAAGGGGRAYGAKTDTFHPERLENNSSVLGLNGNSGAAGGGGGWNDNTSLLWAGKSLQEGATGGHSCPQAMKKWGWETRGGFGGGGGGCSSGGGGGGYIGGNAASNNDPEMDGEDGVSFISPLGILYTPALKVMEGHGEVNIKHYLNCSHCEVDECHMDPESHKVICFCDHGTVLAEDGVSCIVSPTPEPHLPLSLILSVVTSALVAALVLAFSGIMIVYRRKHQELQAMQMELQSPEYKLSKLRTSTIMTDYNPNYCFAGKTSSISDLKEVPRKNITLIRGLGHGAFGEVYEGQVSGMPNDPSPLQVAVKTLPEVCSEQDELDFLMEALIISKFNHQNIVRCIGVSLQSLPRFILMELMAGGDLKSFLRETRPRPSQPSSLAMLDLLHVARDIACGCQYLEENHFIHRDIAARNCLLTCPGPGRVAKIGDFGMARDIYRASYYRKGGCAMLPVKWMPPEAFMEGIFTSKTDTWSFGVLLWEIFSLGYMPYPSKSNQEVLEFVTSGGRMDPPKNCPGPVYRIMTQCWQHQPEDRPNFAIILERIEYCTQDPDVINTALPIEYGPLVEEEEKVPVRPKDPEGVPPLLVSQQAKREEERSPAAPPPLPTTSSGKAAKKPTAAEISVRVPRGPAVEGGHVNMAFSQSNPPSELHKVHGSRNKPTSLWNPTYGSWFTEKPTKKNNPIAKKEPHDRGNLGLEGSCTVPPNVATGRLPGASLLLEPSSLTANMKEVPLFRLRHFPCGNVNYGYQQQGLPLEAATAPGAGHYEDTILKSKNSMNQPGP

Row | Structure (SMILES) | GI50 [1] [nM] | % Inhibition BaF3 NPM-ALK L1196M cells [1] [%] | inhibition at 0.2 µM [2] [%]
1 | CN1CCN(c2ccc(C(=O)Nc3n[nH]c4cc(-c5cnc(N)nc5)c(Cc5cc(F)cc(F)c5)cc34)c(NC3CCOCC3)c2)CC1 [Example 10, N-[6-(2-aminopyrimidin-5-yl)-5-[(3,5-difluorophenyl)methyl]-1H-indazol-3-yl]-4-(4-methylpiperazin-1-yl)-2-(tetrahydropyran-4-ylamino)benzamide] |  | 61 | 93
2 | CN1CCN(c2ccc(C(=O)Nc3n[nH]c4cc(-c5ccc(N)nc5)c(Cc5cc(F)cc(F)c5)cc34)c(NC3CCOCC3)c2)CC1 [Example 11, N-[6-(6-amino-3-pyridyl)-5-[(3,5-difluorophenyl)methyl]-1H-indazol-3-yl]-4-(4-methylpiperazin-1-yl)-2-(tetrahydropyran-4-ylamino)benzamide] | 50 to 100 | 88 | 95
3 | CN1CCN(c2ccc(C(=O)Nc3n[nH]c4cc(-c5cncc(N)c5)c(Cc5cc(F)cc(F)c5)cc34)c(NC3CCOCC3)c2)CC1 [Example 12, N-[6-(5-amino-3-pyridyl)-5-[(3,5-difluorophenyl)methyl]-1H-indazol-3-yl]-4-(4-methylpiperazin-1-yl)-2-(tetrahydropyran-4-ylamino)benzamide] | 50 to 100 | 99 | 100
4 | CN1CCN(c2ccc(C(=O)Nc3n[nH]c4cc(-c5cccc(CO)c5)c(Cc5cc(F)cc(F)c5)cc34)c(NC3CCOCC3)c2)CC1 [Example 13, N-[5-[(3,5-difluorophenyl)methyl]-6-[3-(hydroxymethyl)phenyl]-1H-indazol-3-yl]-4-(4-methylpiperazin-1-yl)-2-(tetrahydropyran-4-ylamino)benzamide] | 100 to 500 | 97 | 
5 | Cc1cc(N)ncc1-c1cc2[nH]nc(NC(=O)c3ccc(N4CCN(C)CC4)cc3NC3CCOCC3)c2cc1Cc1cc(F)cc(F)c1 [Example 14, N-[6-(6-amino-4-methyl-3-pyridyl)-5-[(3,5-difluorophenyl)methyl]-1H-indazol-3-yl]-4-(4-methylpiperazin-1-yl)-2-(tetrahydropyran-4-ylamino)benzamide] |  | 66 | 62
6 | CN1CCN(c2ccc(C(=O)Nc3n[nH]c4cc(-c5cnn(C(C)(C)CO)c5)c(Cc5cc(F)cc(F)c5)cc34)c(NC3CCOCC3)c2)CC1 [Example 15, N-[5-[(3,5-difluorophenyl)methyl]-6-[1-(2-hydroxy-1,1-dimethyl-ethyl)pyrazol-4-yl]-1H-indazol-3-yl]-4-(4-methylpiperazin-1-yl)-2-(tetrahydropyran-4-ylamino)benzamide] | 50 to 100 | 100 | 100
7 | CN1CCN(c2ccc(C(=O)Nc3n[nH]c4cc(-c5cc[nH]c(=O)c5)c(Cc5cc(F)cc(F)c5)cc34)c(NC3CCOCC3)c2)CC1 [Example 16, N-[5-[(3,5-difluorophenyl)methyl]-6-(2-oxo-1H-pyridin-4-yl)-1H-indazol-3-yl]-4-(4-methylpiperazin-1-yl)-2-(tetrahydropyran-4-ylamino)benzamide] |  |  | 88
8 | CN1CCN(c2ccc(C(=O)Nc3n[nH]c4cc(-c5cn[nH]c5)c(Cc5cc(F)cc(F)c5)cc34)c(NC3CCOCC3)c2)CC1 [Example 18, N-[5-[(3,5-difluorophenyl)methyl]-6-(1H-pyrazol-4-yl)-1H-indazol-3-yl]-4-(4-methylpiperazin-1-yl)-2-(tetrahydropyran-4-ylamino)benzamide] | 100 to 500 | 97 | 100
9 | CN1CCN(c2ccc(C(=O)Nc3n[nH]c4cc(-c5cc(O)cc(F)c5)c(Cc5cc(F)cc(F)c5)cc34)c(NC3CCOCC3)c2)CC1 [Example 19, N-[5-[(3,5-difluorophenyl)methyl]-6-(3-fluoro-5-hydroxy-phenyl)-1H-indazol-3-yl]-4-(4-methylpiperazin-1-yl)-2-(tetrahydropyran-4-ylamino)benzamide] | 50 to 100 | 100 | 99
10 | CNC(=O)c1ccc(-c2cc3[nH]nc(NC(=O)c4ccc(N5CCN(C)CC5)cc4NC4CCOCC4)c3cc2Cc2cc(F)cc(F)c2)cc1 [Example 20, N-[5-[(3,5-difluorophenyl)methyl]-6-[4-(methylcarbamoyl)phenyl]-1H-indazol-3-yl]-4-(4-methylpiperazin-1-yl)-2-(tetrahydropyran-4-ylamino)benzamide] |  | 57 | 
11 | Cc1cc(-c2cc3[nH]nc(NC(=O)c4ccc(N5CCN(C)CC5)cc4NC4CCOCC4)c3cc2Cc2cc(F)cc(F)c2)ccc1O [Example 21, N-[5-[(3,5-difluorophenyl)methyl]-6-(4-hydroxy-3-methyl-phenyl)-1H-indazol-3-yl]-4-(4-methylpiperazin-1-yl)-2-(tetrahydropyran-4-ylamino)benzamide] | 1 to 50 | 99 | 100
12 | COc1cccc(-c2cc3[nH]nc(NC(=O)c4ccc(N5CCN(C)CC5)cc4NC4CCOCC4)c3cc2Cc2cc(F)cc(F)c2)c1 [Example 24, N-[5-[(3,5-difluorophenyl)methyl]-6-(3-methoxyphenyl)-1H-indazol-3-yl]-4-(4-methylpiperazin-1-yl)-2-(tetrahydropyran-4-ylamino)benzamide] |  | 52 | 

Continued, in another order:

Row | GI50 [1] [nM] | % Inhibition BaF3 NPM-ALK L1196M cells [1] [%] | Structure (SMILES) | inhibition at 0.2 µM [2] [%]
13 | 1 to 50 | 99 | CN1CCN(c2ccc(C(=O)Nc3n[nH]c4cc(-c5cccc(O)c5)c(Cc5cc(F)cc(F)c5)cc34)c(NC3CCOCC3)c2)CC1 [Example 4, N-[5-[(3,5-difluorophenyl)methyl]-6-(3-hydroxyphenyl)-1H-indazol-3-yl]-4-(4-methylpiperazin-1-yl)-2-(tetrahydropyran-4-ylamino)benzamide] | 99
14 | 1 to 50 | 100 | Cc1cc(O)ccc1-c1cc2[nH]nc(NC(=O)c3ccc(N4CCN(C)CC4)cc3NC3CCOCC3)c2cc1Cc1cc(F)cc(F)c1 [Example 5, N-[5-[(3,5-difluorophenyl)methyl]-6-(4-hydroxy-2-methyl-phenyl)-1H-indazol-3-yl]-4-(4-methylpiperazin-1-yl)-2-(tetrahydropyran-4-ylamino)benzamide] | 100
15 | 1 to 50 | 100 | CN1CCN(c2ccc(C(=O)Nc3n[nH]c4cc(-c5ccc(O)cc5F)c(Cc5cc(F)cc(F)c5)cc34)c(NC3CCOCC3)c2)CC1 [Example 6, N-[5-[(3,5-difluorophenyl)methyl]-6-(2-fluoro-4-hydroxy-phenyl)-1H-indazol-3-yl]-4-(4-methylpiperazin-1-yl)-2-(tetrahydropyran-4-ylamino)benzamide] | 100
16 | 1 to 50 | 100 | Cc1ccc(O)cc1-c1cc2[nH]nc(NC(=O)c3ccc(N4CCN(C)CC4)cc3NC3CCOCC3)c2cc1Cc1cc(F)cc(F)c1 [Example 7, N-[5-[(3,5-difluorophenyl)methyl]-6-(5-hydroxy-2-methyl-phenyl)-1H-indazol-3-yl]-4-(4-methylpiperazin-1-yl)-2-(tetrahydropyran-4-ylamino)benzamide] | 93
17 | 1 to 50 | 99 | CN1CCN(c2ccc(C(=O)Nc3n[nH]c4cc(-c5cc(O)ccc5F)c(Cc5cc(F)cc(F)c5)cc34)c(NC3CCOCC3)c2)CC1 [Example 8, N-[5-[(3,5-difluorophenyl)methyl]-6-(2-fluoro-5-hydroxy-phenyl)-1H-indazol-3-yl]-4-(4-methylpiperazin-1-yl)-2-(tetrahydropyran-4-ylamino)benzamide] | 99
18 | 1 to 50 | 99 | CN1CCN(c2ccc(C(=O)Nc3n[nH]c4cc(-c5ccc(O)cc5C(F)(F)F)c(Cc5cc(F)cc(F)c5)cc34)c(NC3CCOCC3)c2)CC1 [Example 9, N-[5-[(3,5-difluorophenyl)methyl]-6-[4-hydroxy-2-(trifluoromethyl)phenyl]-1H-indazol-3-yl]-4-(4-methylpiperazin-1-yl)-2-(tetrahydropyran-4-ylamino)benzamide] | 100
